Assay results reported in patent US20030216361A1, “Therapeutic compositions effective against gram positive bacteria” (priority 2000, published 2003).
“And” between values parts separate entries of the source, which are not always exact repeats. Equal values may be shown once.

Test system: ATCC 14154, mouse virulent Staphylococcus aureus
Experiment: Mouse model of topical Gram positive (Staphylococcus aureus) infection, infected suture
Assay type: in vivo
Settings: Group 5 enrofloxacin (Baytril) 10 mg/kg SQ SID×7 days, mice
Procedure: The model, as described in J. Gisby and J. Bryant, Antimicrobial Agents and Chemotherapy, February 2000, Vol. 44, No. 2, p 255-260, was used.
Fifty HSD:ICR male mice weighing 12-14 grams were ordered and allowed to acclimate 7 days. Mice were allocated to 5 groups of 10 animals each.
Group 1: infected suture placed, no treatment
Group 2: topical GRPB, 12.5 mg/kg BID×7 days
Group 3: topical GRPB, 25 mg/kg BID×7 days
Group 4: clean suture, no treatment
Group 5: enrofloxacin (Baytril) 10 mg/kg SQ SID×7 days
ATCC 14154, mouse virulent Staphylococcus aureus was grown in BHI broth overnight (12 hours) at 38 degrees C. Forty-five minutes prior to surgery, silk suture (2-0 size, 1 cm lengths w/swaged-on blunt needle) was soaked in the broth for 30 minutes, excess liquid was then removed by blotting with filter paper.
Mice were anesthetized with a ketamine (40 mg/kg), midazolam (2 mg/kg), and butorphanol (0.1 mg/kg) as a single IP injection.
The skin on the back of the mouse was prepared for aseptic surgery by clipping, cleansing with iodine scrub, and rinsing with alcohol. Mice were kept warm during surgery on a recirculating hot water blanket.
The suture was placed just under the skin on the dorsum of the animal using sterile instruments. The suture was knotted in the subcutaneous tissue to keep it in place. A half-thickness skin wound was made over the suture using the side of an 18 gauge needle as a scalpel.
Mice were allowed to recover in the home cage.
GRPB-10-15A was reconstituted as directed, using a minimal amount of methanol followed by dilution to required volume in sterile physiologic saline.
Injections were given using insulin syringes with 30 gauge needles. Topical administration was placed over the wound site. The mice were first treated 4 hours after surgery and were treated once or twice daily thereafter.
After 7 days of treatment animals were euthanized with IP pentobarbital euthanasia solution. The suture lengths were removed and placed in 2 mls phosphate buffered saline. Serial dilutions were performed and results reported as actual counts (number of Staph colonies per suture).

SMILES: CCN1CCN(c2cc3c(cc2F)c(=O)c(C(=O)O)cn3C2CC2)CC1 [Baytril, enrofloxacin, reference compound]
- Total colonies (number of Staph colonies per suture), individual animals (animals 1-10, 10 mg/kg): 18 colonies per suture and 30 colonies per suture and 24 colonies per suture and 100 colonies per suture and 0 colonies per suture (2×) and 74 colonies per suture and 13 colonies per suture and 740 colonies per suture and 22 colonies per suture
- Total colonies (number of Staph colonies per suture), Ave. (average of 10 animals): 102 colonies per suture
